According to PubChem BioAssay AID2060499 (Molecular Pharmacology Branch, DTP, NCI, 2025):

System: 777334-354-R2-J4-PDC tumor spheroids with HUVEC/MSC, viability
Experiment: Anticancer human tumor 777334-354-R2-J4-PDC patient-derived pancreatic adenocarcinoma cell line growth inhibition [GQUAD]
Details: for IC50: curve of first compound; for viability, T/C: stronger effect = lower value
Summary of the method: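 Tumor cells were grown as complex spheroids with HUVEC endothelial cells and mesenchymal stem cells as stroma. G-quadruplex stabilizers were combined with targeted agents over half-log dilutions from near the clinical Cmax, or from 10 microM.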

[1] = second compound 0.0316 µM, first compound 0.0316 µM
[2] = second compound 0.0316 µM, first compound 0.1 µM
[3] = second compound 0.0316 µM, first compound 0.316 µM
[4] = second compound 0.0316 µM, first compound 1 µM
[5] = second compound 0.0316 µM, first compound 3.16 µM
[6] = second compound 0.0316 µM, first compound 10 µM
[7] = second compound 0.1 µM, first compound 0.0316 µM
[8] = second compound 0.1 µM, first compound 0.1 µM
[9] = second compound 0.1 µM, first compound 0.316 µM
[10] = second compound 0.1 µM, first compound 1 µM
[11] = second compound 0.1 µM, first compound 3.16 µM
[12] = second compound 0.1 µM, first compound 10 µM
[13] = second compound 0.316 µM, first compound 0.0316 µM
[14] = second compound 0.316 µM, first compound 0.1 µM
[15] = second compound 0.316 µM, first compound 0.316 µM
[16] = second compound 0.316 µM, first compound 1 µM
[17] = second compound 0.316 µM, first compound 3.16 µM
[18] = second compound 0.316 µM, first compound 10 µM
[19] = second compound 1 µM, first compound 0.0316 µM
[20] = second compound 1 µM, first compound 0.1 µM
[21] = second compound 1 µM, first compound 0.316 µM
[22] = second compound 1 µM, first compound 1 µM
[23] = second compound 1 µM, first compound 3.16 µM
[24] = second compound 1 µM, first compound 10 µM
[25] = second compound 3.16 µM, first compound 0.0316 µM
[26] = second compound 3.16 µM, first compound 0.1 µM
[27] = second compound 3.16 µM, first compound 0.316 µM
[28] = second compound 3.16 µM, first compound 1 µM
[29] = second compound 3.16 µM, first compound 3.16 µM
[30] = second compound 3.16 µM, first compound 10 µM
[31] = second compound 10 µM, first compound 0.0316 µM
[32] = second compound 10 µM, first compound 0.1 µM
[33] = second compound 10 µM, first compound 0.316 µM
[34] = second compound 10 µM, first compound 1 µM
[35] = second compound 10 µM, first compound 3.16 µM
[36] = second compound 10 µM, first compound 10 µM
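Also: spheroids exposed to compounds for 7 days before readout.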

## C=CCn1c(=O)c2cnc(Nc3ccc(N4CCN(C)CC4)cc3)nc2n1-c1cccc(C(C)(C)O)n1 + Cc1cnc(CNC(=O)c2c(=O)c3ccc(N4CCCN(C)CC4)nc3n3c2sc2ccccc23)cn1
Second compound 0.0316 µM
  IC50: 619 nM
Second compound 0.1 µM
  IC50: 299 nM
Second compound 0.316 µM
  IC50: 400 nM
Second compound 1 µM
  IC50: 360 nM
Second compound 3.16 µM
  IC50: 162 nM
Second compound 10 µM
  IC50: 68.3 nM
[1]
  viability, T/C: 88.6%
[2]
  viability, T/C: 75.3%
[3]
  viability, T/C: 64.8%
[4]
  viability, T/C: 37.5%
[5]
  viability, T/C: 37.9%
[6]
  viability, T/C: 38.4%
[7]
  viability, T/C: 78.4%
[8]
  viability, T/C: 67.8%
[9]
  viability, T/C: 50.2%
[10]
  viability, T/C: 37%
[11]
  viability, T/C: 37%
[12]
  viability, T/C: 38.5%
[13]
  viability, T/C: 73%
[14]
  viability, T/C: 72.1%
[15]
  viability, T/C: 52.6%
[16]
  viability, T/C: 39.8%
[17]
  viability, T/C: 39.5%
[18]
  viability, T/C: 40.5%
[19]
  viability, T/C: 65.2%
[20]
  viability, T/C: 64.4%
[21]
  viability, T/C: 51.2%
[22]
  viability, T/C: 40.6%
[23]
  viability, T/C: 42.4%
[24]
  viability, T/C: 38.2%
[25]
  viability, T/C: 62.8%
[26]
  viability, T/C: 56.3%
[27]
  viability, T/C: 44.5%
[28]
  viability, T/C: 37.3%
[29]
  viability, T/C: 39.1%
[30]
  viability, T/C: 35.1%
[31]
  viability, T/C: 57.3%
[32]
  viability, T/C: 46.8%
[33]
  viability, T/C: 38.6%
[34]
  viability, T/C: 32.6%
[35]
  viability, T/C: 36.7%
[36]
  viability, T/C: 27.8%

## CCCS(=O)(=O)Nc1ccc(F)c(C(=O)c2c[nH]c3ncc(-c4ccc(Cl)cc4)cc23)c1F + Cc1cnc(CNC(=O)c2c(=O)c3ccc(N4CCCN(C)CC4)nc3n3c2sc2ccccc23)cn1
Second compound 0.0316 µM
  IC50: 7160 nM
Second compound 0.1 µM
  IC50: 6930 nM
Second compound 0.316 µM
  IC50: 6740 nM
Second compound 1 µM
  IC50: 7160 nM
Second compound 3.16 µM
  IC50: > 10000 nM
Second compound 10 µM
  IC50: 3870 nM
[1]
  viability, T/C: 99.3%
[2]
  viability, T/C: 89.1%
[3]
  viability, T/C: 105%
[4]
  viability, T/C: 94.3%
[5]
  viability, T/C: 106%
[6]
  viability, T/C: 30%
[7]
  viability, T/C: 83.5%
[8]
  viability, T/C: 88.7%
[9]
  viability, T/C: 104%
[10]
  viability, T/C: 95.5%
[11]
  viability, T/C: 88%
[12]
  viability, T/C: 32.1%
[13]
  viability, T/C: 88.7%
[14]
  viability, T/C: 91.7%
[15]
  viability, T/C: 69%
[16]
  viability, T/C: 92.6%
[17]
  viability, T/C: 93.3%
[18]
  viability, T/C: 30.7%
[19]
  viability, T/C: 68.8%
[20]
  viability, T/C: 77.6%
[21]
  viability, T/C: 78.5%
[22]
  viability, T/C: 71.2%
[23]
  viability, T/C: 74.9%
[24]
  viability, T/C: 40.2%
[25]
  viability, T/C: 59%
[26]
  viability, T/C: 61.1%
[27]
  viability, T/C: 68.9%
[28]
  viability, T/C: 71.2%
[29]
  viability, T/C: 72%
[30]
  viability, T/C: 43.1%
[31]
  viability, T/C: 52.7%
[32]
  viability, T/C: 48.6%
[33]
  viability, T/C: 68.2%
[34]
  viability, T/C: 68.4%
[35]
  viability, T/C: 65.2%
[36]
  viability, T/C: 0.24%
